15 compounds from patent US5843889A, “Glycopeptide antibiotic derivatives” (Eli Lilly and Company, priority 1997, dated 1998) can be followed below.

In brackets after ≈: the same amount, converted by molar mass.

The subject of one assay is Entercoccus gallinarum 245. The experiment in a line: MIC, standard broth micro-dilution assay. The format is cell-based. The protocol:
(§1) The formula I compounds have in vitro and in vivo activity against Gram-positive pathogenic bacteria. The MIC's were determined using a standard broth micro-dilution assay.
Take `CCCCCCCCc1ccc(-c2ccc(CNC3(C)CC(OC4C(Oc5c6cc7cc5Oc5ccc(cc5Cl)C(OC5CC(C)(N)C(O)C(C)O5)C5NC(=O)C(NC(=O)C7NC(=O)C(CC(N)=O)NC(=O)C(NC(=O)C(CC(C)C)NC)C(O)c7ccc(c(Cl)c7)O6)c6ccc(O)c(c6)-c6c(O)cc(O)cc6C(C(=O)O)NC5=O)OC(CO)C(O)C4O)OC(C)C3O)cc2)cc1` (stereo not drawn) [Compound 21]: the MIC turned out to be 8 µg/mL (≈ 4.28 µM).

`CCCCCC1CCC(c2ccc(CNC3(C)CC(OC4C(Oc5c6cc7cc5Oc5ccc(cc5Cl)C(OC5CC(C)(N)C(O)C(C)O5)C5NC(=O)C(NC(=O)C7NC(=O)C(CC(N)=O)NC(=O)C(NC(=O)C(CC(C)C)NC)C(O)c7ccc(c(Cl)c7)O6)c6ccc(O)c(c6)-c6c(O)cc(O)cc6C(C(=O)O)NC5=O)OC(CO)C(O)C4O)OC(C)C3O)cc2)CC1` (stereo not drawn) [Compound 34, 4-[4-pentylcyclohexyl]benzyl] returned a minimum inhibitory concentration (MIC) of 4 µg/mL (≈ 2.18 µM). Against the preceding compound, the MIC is about 2-fold lower.

In the case of `CNC(CC(C)C)C(=O)NC1C(=O)NC(CC(N)=O)C(=O)NC2C(=O)NC3C(=O)NC(C(=O)NC(C(=O)O)c4cc(O)cc(O)c4-c4cc3ccc4O)C(OC3CC(C)(N)C(O)C(C)O3)c3ccc(c(Cl)c3)Oc3cc2cc(c3OC2OC(CO)C(O)C(O)C2OC2CC(C)(NCc3c(C)c(C)c(C)c(C)c3C)C(O)C(C)O2)Oc2ccc(cc2Cl)C1O` (stereo not drawn) [Compound 73], the MIC turned out to be 2 µg/mL (≈ 1.14 µM).

The compound `CNC(CC(C)C)C(=O)NC1C(=O)NC(CC(N)=O)C(=O)NC2C(=O)NC3C(=O)NC(C(=O)NC(C(=O)O)c4cc(O)cc(O)c4-c4cc3ccc4O)C(OC3CC(C)(N)C(O)C(C)O3)c3ccc(c(Cl)c3)Oc3cc2cc(c3OC2OC(CO)C(O)C(O)C2OC2CC(C)(NCc3ccc(I)s3)C(O)C(C)O2)Oc2ccc(cc2Cl)C1O` (stereo not drawn) [Compound 74, 5-iodo-2-thienylmethyl] displayed an MIC of no more than 0.06 µg/mL.

In turn, `CCN(CC)CCOc1ccc(CNC2(C)CC(OC3C(Oc4c5cc6cc4Oc4ccc(cc4Cl)C(OC4CC(C)(N)C(O)C(C)O4)C4NC(=O)C(NC(=O)C6NC(=O)C(CC(N)=O)NC(=O)C(NC(=O)C(CC(C)C)NC)C(O)c6ccc(c(Cl)c6)O5)c5ccc(O)c(c5)-c5c(O)cc(O)cc5C(C(=O)O)NC4=O)OC(CO)C(O)C3O)OC(C)C2O)cc1` (stereo not drawn) [Compound 83, 4-[2-[N,N-diethylamino]ethoxy]benzyl] gave an MIC of 0.5 µg/mL (≈ 0.278 µM).

As for `CN[C@H](CC(C)C)C(=O)N[C@H]1C(=O)N[C@@H](CC(N)=O)C(=O)N[C@H]2C(=O)N[C@H]3C(=O)N[C@H](C(=O)N[C@H](C(=O)O)c4cc(O)cc(O)c4-c4cc3ccc4O)[C@H](O[C@H]3C[C@](C)(N)[C@@H](O)[C@H](C)O3)c3ccc(c(Cl)c3)Oc3cc2cc(c3O[C@@H]2O[C@H](CO)[C@@H](O)[C@H](O)[C@H]2O[C@H]2C[C@](C)(NCc3ccc(-c4cccc(F)c4)cc3)[C@@H](O)[C@H](C)O2)Oc2ccc(cc2Cl)[C@H]1O` [Compound 92, 4-[3-fluorophenyl]benzyl], the MIC was determined as 2 µg/mL (≈ 1.13 µM). Compared with the last compound, the MIC is about 4-fold higher.

The compound `CNC(CC(C)C)C(=O)NC1C(=O)NC(CC(N)=O)C(=O)NC2C(=O)NC3C(=O)NC(C(=O)NC(C(=O)O)c4cc(O)cc(O)c4-c4cc3ccc4O)C(OC3CC(C)(N)C(O)C(C)O3)c3ccc(c(Cl)c3)Oc3cc2cc(c3OC2OC(CO)C(O)C(O)C2OC2CC(C)(NCc3ccc(OC(C)=O)c(OC)c3)C(O)C(C)O2)Oc2ccc(cc2Cl)C1O` (stereo not drawn) [Compound 99, 4-acetoxy-3-methoxybenzyl] came in with an MIC of 32 µg/mL (≈ 18.1 µM).

In turn, `CCOc1cc(CNC2(C)CC(OC3C(Oc4c5cc6cc4Oc4ccc(cc4Cl)C(OC4CC(C)(N)C(O)C(C)O4)C4NC(=O)C(NC(=O)C6NC(=O)C(CC(N)=O)NC(=O)C(NC(=O)C(CC(C)C)NC)C(O)c6ccc(c(Cl)c6)O5)c5ccc(O)c(c5)-c5c(O)cc(O)cc5C(C(=O)O)NC4=O)OC(CO)C(O)C3O)OC(C)C2O)ccc1OCC1CCCCC1` (stereo not drawn) [Compound 105, 4-[cyclohexylmethoxy]-3-ethoxybenzyl] returned an MIC of 1 µg/mL (≈ 0.544 µM).

Turning to `CNC(CC(C)C)C(=O)NC1C(=O)NC(CC(N)=O)C(=O)NC2C(=O)NC3C(=O)NC(C(=O)NC(C(=O)O)c4cc(O)cc(O)c4-c4cc3ccc4O)C(OC3CC(C)(N)C(O)C(C)O3)c3ccc(c(Cl)c3)Oc3cc2cc(c3OC2OC(CO)C(O)C(O)C2OC2CC(C)(NCc3ccc([S+]([O-])c4ccccc4)cc3)C(O)C(C)O2)Oc2ccc(cc2Cl)C1O` (stereo not drawn) [Compound 159, 4-[phenylsulfinyl]benzyl], the MIC stood at 8 µg/mL (≈ 4.43 µM).

Regarding `CNC(CC(C)C)C(=O)NC1C(=O)NC(CC(N)=O)C(=O)NC2C(=O)NC3C(=O)NC(C(=O)NC(C(=O)O)c4cc(O)cc(O)c4-c4cc3ccc4O)C(OC3CC(C)(N)C(O)C(C)O3)c3ccc(c(Cl)c3)Oc3cc2cc(c3OC2OC(CO)C(O)C(O)C2OC2CC(C)(NCc3ccc(OCC(O)CO)cc3)C(O)C(C)O2)Oc2ccc(cc2Cl)C1O` (stereo not drawn) [Compound 177, 4-[2,3-dihydroxypropoxy]benzyl], the MIC was found to be 16 µg/mL (≈ 9.03 µM).

As to `CNC(CC(C)C)C(=O)NC1C(=O)NC(CC(N)=O)C(=O)NC2C(=O)NC3C(=O)NC(C(=O)NC(C(=O)O)c4cc(O)cc(O)c4-c4cc3ccc4O)C(OC3CC(C)(N)C(O)C(C)O3)c3ccc(c(Cl)c3)Oc3cc2cc(c3OC2OC(CO)C(O)C(O)C2OC2CC(C)(NCc3ccc(-c4ccc(C)cc4)c(C)c3)C(O)C(C)O2)Oc2ccc(cc2Cl)C1O` (stereo not drawn) [Compound 225, 4-[4-methylphenyl]-3-methylbenzyl], the MIC worked out at 4 µg/mL (≈ 2.24 µM).

In a further assay the test system is Entercoccus faecalis 2041. The experiment in a line: MIC, standard broth micro-dilution assay. The format is cell-based. The protocol: as §1
Compound `CNC(CC(C)C)C(=O)NC1C(=O)NC(CC(N)=O)C(=O)NC2C(=O)NC3C(=O)NC(C(=O)NC(C(=O)O)c4cc(O)cc(O)c4-c4cc3ccc4O)C(OC3CC(C)(N)C(O)C(C)O3)c3ccc(c(Cl)c3)Oc3cc2cc(c3OC2OC(CO)C(O)C(O)C2OC2CC(C)(NCc3ccc(-c4ccc(O)cc4)cc3)C(O)C(C)O2)Oc2ccc(cc2Cl)C1O` (stereo not drawn) [Compound 20, 4-[4-hydroxyphenyl]benzyl] returned a minimal inhibitory concentration (MIC) of no more than 0.06 µg/mL.

Turning to `CCCCCC1CCC(c2ccc(CNC3(C)CC(OC4C(Oc5c6cc7cc5Oc5ccc(cc5Cl)C(OC5CC(C)(N)C(O)C(C)O5)C5NC(=O)C(NC(=O)C7NC(=O)C(CC(N)=O)NC(=O)C(NC(=O)C(CC(C)C)NC)C(O)c7ccc(c(Cl)c7)O6)c6ccc(O)c(c6)-c6c(O)cc(O)cc6C(C(=O)O)NC5=O)OC(CO)C(O)C4O)OC(C)C3O)cc2)CC1` (stereo not drawn) [Compound 34, 4-[4-pentylcyclohexyl]benzyl], the MIC turned out to be 8 µg/mL (≈ 4.36 µM).

On to `CNC(CC(C)C)C(=O)NC1C(=O)NC(CC(N)=O)C(=O)NC2C(=O)NC3C(=O)NC(C(=O)NC(C(=O)O)c4cc(O)cc(O)c4-c4cc3ccc4O)C(OC3CC(C)(N)C(O)C(C)O3)c3ccc(c(Cl)c3)Oc3cc2cc(c3OC2OC(CO)C(O)C(O)C2OC2CC(C)(NCc3ccc(I)s3)C(O)C(C)O2)Oc2ccc(cc2Cl)C1O` (stereo not drawn) [Compound 74, 5-iodo-2-thienylmethyl], for which the MIC is no more than 0.06 µg/mL.

With `CNC(CC(C)C)C(=O)NC1C(=O)NC(CC(N)=O)C(=O)NC2C(=O)NC3C(=O)NC(C(=O)NC(C(=O)O)c4cc(O)cc(O)c4-c4cc3ccc4O)C(OC3CC(C)(N)C(O)C(C)O3)c3ccc(c(Cl)c3)Oc3cc2cc(c3OC2OC(CO)C(O)C(O)C2OC2CC(C)(NCc3ccc([N+](=O)[O-])cc3)C(O)C(C)O2)Oc2ccc(cc2Cl)C1O` (stereo not drawn) [Compound 78, 4-nitrobenzyl], the MIC was no more than 0.06 µg/mL.

`CCN(CC)CCOc1ccc(CNC2(C)CC(OC3C(Oc4c5cc6cc4Oc4ccc(cc4Cl)C(OC4CC(C)(N)C(O)C(C)O4)C4NC(=O)C(NC(=O)C6NC(=O)C(CC(N)=O)NC(=O)C(NC(=O)C(CC(C)C)NC)C(O)c6ccc(c(Cl)c6)O5)c5ccc(O)c(c5)-c5c(O)cc(O)cc5C(C(=O)O)NC4=O)OC(CO)C(O)C3O)OC(C)C2O)cc1` (stereo not drawn) [Compound 83, 4-[2-[N,N-diethylamino]ethoxy]benzyl]: the MIC is 0.5 µg/mL (≈ 0.278 µM).

For `CNC(CC(C)C)C(=O)NC1C(=O)NC(CC(N)=O)C(=O)NC2C(=O)NC3C(=O)NC(C(=O)NC(C(=O)O)c4cc(O)cc(O)c4-c4cc3ccc4O)C(OC3CC(C)(N)C(O)C(C)O3)c3ccc(c(Cl)c3)Oc3cc2cc(c3OC2OC(CO)C(O)C(O)C2OC2CC(C)(NCc3ccc(N4CCC(C)CC4)cc3)C(O)C(C)O2)Oc2ccc(cc2Cl)C1O` (stereo not drawn) [Compound 129, 4-[4-methyl-1-piperidino]benzyl], the minimum inhibitory concentration (MIC) was no more than 0.06 µg/mL.

The compound `CNC(CC(C)C)C(=O)NC1C(=O)NC(CC(N)=O)C(=O)NC2C(=O)NC3C(=O)NC(C(=O)NC(C(=O)O)c4cc(O)cc(O)c4-c4cc3ccc4O)C(OC3CC(C)(N)C(O)C(C)O3)c3ccc(c(Cl)c3)Oc3cc2cc(c3OC2OC(CO)C(O)C(O)C2OC2CC(C)(NCc3ccc(N4CCOCC4)cc3)C(O)C(C)O2)Oc2ccc(cc2Cl)C1O` (stereo not drawn) [Compound 147, 4-morpholinobenzyl] returned a minimal inhibitory concentration (MIC) of no more than 0.06 µg/mL.
